In ChEMBL document CHEMBL6121052, “Design of ROS-Triggered Sesquiterpene Lactone SC Prodrugs as TrxR1 Covalent Inhibitors for the Treatment of Non-Small Cell Lung Cancer” (J Med Chem, 2025):

Tests used:
[1] = tested on: A549; assay: Cytotoxicity against human A549 cells assessed as cell viability incubated for 48 hrs by MTT assay; assay type: functional, cell-based; conditions: A549, 48 h
[2] = tested on: NCI-H460; assay: Cytotoxicity against human NCI-H460 cells assessed as cell viability incubated for 48 hrs by MTT assay; assay type: functional, cell-based; conditions: NCI-H460, 48 h

Compound | IC50 [1] [µM] | IC50 [2] [µM]
C/C1=C\[C@@H](OC(=O)C2CC2)[C@H]2[C@H](CC3=C[C@H](C1)OC3=O)OC(=O)[C@@H]2CSC1CCCCC1 | > 25 | > 25
C/C1=C\[C@@H](OC(=O)C2CC2)[C@H]2[C@H](CC3=C[C@H](C1)OC3=O)OC(=O)[C@@H]2CSCCCCCCSC[C@H]1C(=O)O[C@H]2CC3=C[C@H](C/C(C)=C/[C@@H](OC(=O)C4CC4)[C@@H]21)OC3=O | > 25 | > 25
C/C1=C\[C@@H](OC(=O)/C=C/c2ccccc2)[C@H]2[C@H](CC3=C[C@H](C1)OC3=O)OC(=O)[C@@H]2CSc1ccc(Cl)cc1 | 7.5 | > 25
C/C1=C\[C@@H](O)[C@H]2[C@H](CC3=C[C@H](C1)OC3=O)OC(=O)[C@@H]2CSC1CCCCC1 | > 25 | > 25
C/C1=C\[C@@H](OC(=O)C2CC2)[C@H]2[C@H](CC3=C[C@H](C1)OC3=O)OC(=O)[C@@H]2CSCc1ccc(Cl)cc1 | > 25 | > 25
C/C1=C\[C@@H](O)[C@H]2[C@H](CC3=C[C@H](C1)OC3=O)OC(=O)[C@@H]2CSCc1ccc(Cl)cc1 | > 25 | > 25
C/C1=C\[C@@H](OC(=O)C2CC2)[C@H]2[C@H](CC3=C[C@H](C1)OC3=O)OC(=O)[C@@H]2CSc1ccc([N+](=O)[O-])cc1 | 5.12 | > 25
C/C1=C\[C@@H](OC(=O)C2CC2)[C@H]2[C@H](CC3=C[C@H](C1)OC3=O)OC(=O)[C@@H]2CSc1cccc(F)c1 | 5.4 | 13.2
C/C1=C\[C@@H](OC(=O)/C=C/c2ccccc2)[C@H]2[C@H](CC3=C[C@H](C1)OC3=O)OC(=O)[C@@H]2CSCCCCCCCCSC[C@H]1C(=O)O[C@H]2CC3=C[C@H](C/C(C)=C/[C@@H](OC(=O)/C=C/c4ccccc4)[C@@H]21)OC3=O | > 25 | > 25
C/C1=C\[C@@H](OC(=O)C2CC2)[C@H]2[C@H](CC3=C[C@H](C1)OC3=O)OC(=O)[C@@H]2CSCCOCCOCCSC[C@H]1C(=O)O[C@H]2CC3=C[C@H](C/C(C)=C/[C@@H](OC(=O)C4CC4)[C@@H]21)OC3=O | 13.2 | > 25
C/C1=C\[C@@H](O)[C@H]2[C@H](CC3=C[C@H](C1)OC3=O)OC(=O)[C@@H]2CSCCCCCSC[C@H]1C(=O)O[C@H]2CC3=C[C@H](C/C(C)=C/[C@@H](O)[C@@H]21)OC3=O | > 25 | > 25
C/C1=C\[C@@H](OC(=O)C2CC2)[C@H]2[C@H](CC3=C[C@H](C1)OC3=O)OC(=O)[C@@H]2CSC(=S)NC1CCCC1 | 2.63 | > 25
C/C1=C\[C@@H](O)[C@H]2[C@H](CC3=C[C@H](C1)OC3=O)OC(=O)[C@@H]2CSCC(C)C | > 25 | > 25
C/C1=C\[C@@H](O)[C@H]2[C@H](CC3=C[C@H](C1)OC3=O)OC(=O)[C@@H]2CSCCCCCCCCCCSC[C@H]1C(=O)O[C@H]2CC3=C[C@H](C/C(C)=C/[C@@H](O)[C@@H]21)OC3=O | > 25 | > 25
C/C1=C\[C@@H](OC(=O)c2ccccc2)[C@H]2[C@H](CC3=C[C@H](C1)OC3=O)OC(=O)[C@@H]2CSc1ccc(C(F)(F)F)cc1 | 3.74 | 24.4
COc1ccc(SC[C@H]2C(=O)O[C@H]3CC4=C[C@H](C/C(C)=C/[C@@H](OC(=O)/C=C/c5ccccc5)[C@@H]32)OC4=O)cc1 | 14 | > 25
C/C1=C\[C@@H](O)[C@H]2[C@H](CC3=C[C@H](C1)OC3=O)OC(=O)[C@@H]2CSCCCCCCSC[C@H]1C(=O)O[C@H]2CC3=C[C@H](C/C(C)=C/[C@@H](O)[C@@H]21)OC3=O | 21.9 | > 25
C/C1=C\[C@@H](OC(=O)C2CC2)[C@H]2[C@H](CC3=C[C@H](C1)OC3=O)OC(=O)[C@@H]2CSc1ccc(SC[C@H]2C(=O)O[C@H]3CC4=C[C@H](C/C(C)=C/[C@@H](OC(=O)C5CC5)[C@@H]32)OC4=O)cc1 | 1.15 | > 25
CCCCCSC[C@H]1C(=O)O[C@H]2CC3=C[C@H](C/C(C)=C/[C@@H](OC(=O)C4CC4)[C@@H]21)OC3=O | > 25 | > 25
C/C1=C\[C@@H](OC(=O)C2CC2)[C@H]2[C@H](CC3=C[C@H](C1)OC3=O)OC(=O)[C@@H]2CSC(=S)NCc1cccnc1 | 1.41 | 15.3
C/C1=C\[C@@H](OC(=O)C2CC2)[C@H]2[C@H](CC3=C[C@H](C1)OC3=O)OC(=O)[C@@H]2CSc1ccc(Cl)cc1 | 6.03 | > 25
C/C1=C\[C@@H](O)[C@H]2[C@H](CC3=C[C@H](C1)OC3=O)OC(=O)[C@@H]2CSc1cccc(F)c1 | > 25 | > 25

Compound | IC50 [1] [µM] | IC50 [2] [µM]
C/C1=C\[C@@H](OC(=O)c2ccccc2)[C@H]2[C@H](CC3=C[C@H](C1)OC3=O)OC(=O)[C@@H]2CSc1ccc(F)cc1 | 7.18 | > 25
C/C1=C\[C@@H](OC(=O)c2ccccc2)[C@H]2[C@H](CC3=C[C@H](C1)OC3=O)OC(=O)[C@@H]2CSCCCCCCSC[C@H]1C(=O)O[C@H]2CC3=C[C@H](C/C(C)=C/[C@@H](OC(=O)c4ccccc4)[C@@H]21)OC3=O | > 25 | > 25
CCCCCSC[C@H]1C(=O)O[C@H]2CC3=C[C@H](C/C(C)=C/[C@@H](O)[C@@H]21)OC3=O | > 25 | > 25
C/C1=C\[C@@H](OC(=O)/C=C/c2ccccc2)[C@H]2[C@H](CC3=C[C@H](C1)OC3=O)OC(=O)[C@@H]2CSC1CCCCC1 | > 25 | > 25
C/C1=C\[C@@H](O)[C@H]2[C@H](CC3=C[C@H](C1)OC3=O)OC(=O)[C@@H]2CSc1ccc(Br)cc1 | 15.2 | > 25
COc1ccc(SC[C@H]2C(=O)O[C@H]3CC4=C[C@H](C/C(C)=C/[C@@H](OC(=O)C5CC5)[C@@H]32)OC4=O)cc1 | 6.81 | > 25
C/C1=C\[C@@H](OC(=O)c2ccccc2)[C@H]2[C@H](CC3=C[C@H](C1)OC3=O)OC(=O)[C@@H]2CSCCCCCCCCCCSC[C@H]1C(=O)O[C@H]2CC3=C[C@H](C/C(C)=C/[C@@H](OC(=O)c4ccccc4)[C@@H]21)OC3=O | > 25 | > 25
C/C1=C\[C@@H](OC(=O)c2ccccc2)[C@H]2[C@H](CC3=C[C@H](C1)OC3=O)OC(=O)[C@@H]2CSc1ccc([N+](=O)[O-])cc1 | 2.59 | > 25
C/C1=C\[C@@H](O)[C@H]2[C@H](CC3=C[C@H](C1)OC3=O)OC(=O)[C@@H]2CSCCOCCOCCSC[C@H]1C(=O)O[C@H]2CC3=C[C@H](C/C(C)=C/[C@@H](O)[C@@H]21)OC3=O | > 25 | > 25
C/C1=C\[C@@H](O)[C@H]2[C@H](CC3=C[C@H](C1)OC3=O)OC(=O)[C@@H]2CSc1ccc(F)cc1 | > 25 | > 25
COc1ccc(SC[C@H]2C(=O)O[C@H]3CC4=C[C@H](C/C(C)=C/[C@@H](OC(=O)c5ccccc5)[C@@H]32)OC4=O)cc1 | 9.67 | > 25
C/C1=C\[C@@H](OC(=O)c2ccccc2)[C@H]2[C@H](CC3=C[C@H](C1)OC3=O)OC(=O)[C@@H]2CSCc1ccc(Cl)cc1 | > 25 | > 25
C/C1=C\[C@@H](OC(=O)/C=C/c2ccccc2)[C@H]2[C@H](CC3=C[C@H](C1)OC3=O)OC(=O)[C@@H]2CSCCCCCSC[C@H]1C(=O)O[C@H]2CC3=C[C@H](C/C(C)=C/[C@@H](OC(=O)/C=C/c4ccccc4)[C@@H]21)OC3=O | > 25 | > 25
C/C1=C\[C@@H](OC(=O)C2CC2)[C@H]2[C@H](CC3=C[C@H](C1)OC3=O)OC(=O)[C@@H]2CSCCCCCCCCCCSC[C@H]1C(=O)O[C@H]2CC3=C[C@H](C/C(C)=C/[C@@H](OC(=O)C4CC4)[C@@H]21)OC3=O | > 25 | > 25
C/C1=C\[C@@H](OC(=O)c2ccccc2)[C@H]2[C@H](CC3=C[C@H](C1)OC3=O)OC(=O)[C@@H]2CSc1ccc(Cl)cc1 | 4.14 | 20.6
C/C1=C\[C@@H](OC(=O)C2CC2)[C@H]2[C@H](CC3=C[C@H](C1)OC3=O)OC(=O)[C@@H]2CSC(=S)NCc1ccc(F)cc1 | 1.79 | 15.2
C/C1=C\[C@@H](OC(=O)/C=C/c2ccccc2)[C@H]2[C@H](CC3=C[C@H](C1)OC3=O)OC(=O)[C@@H]2CSCC(C)C | > 25 | > 25
C/C1=C\[C@@H](O)[C@H]2[C@H](CC3=C[C@H](C1)OC3=O)OC(=O)[C@@H]2CSc1ccc(SC[C@H]2C(=O)O[C@H]3CC4=C[C@H](C/C(C)=C/[C@@H](O)[C@@H]32)OC4=O)cc1 | > 25 | > 25
C/C1=C\[C@@H](O)[C@H]2[C@H](CC3=C[C@H](C1)OC3=O)OC(=O)[C@@H]2CSc1cccc(Br)c1 | > 25 | > 25
C/C1=C\[C@@H](OC(=O)/C=C/c2ccccc2)[C@H]2[C@H](CC3=C[C@H](C1)OC3=O)OC(=O)[C@@H]2CSCCCCCCSC[C@H]1C(=O)O[C@H]2CC3=C[C@H](C/C(C)=C/[C@@H](OC(=O)/C=C/c4ccccc4)[C@@H]21)OC3=O | > 25 | > 25
C/C1=C\[C@@H](OC(=O)/C=C/c2ccccc2)[C@H]2[C@H](CC3=C[C@H](C1)OC3=O)OC(=O)[C@@H]2CSCCOCCOCCSC[C@H]1C(=O)O[C@H]2CC3=C[C@H](C/C(C)=C/[C@@H](OC(=O)/C=C/c4ccccc4)[C@@H]21)OC3=O | > 25 | > 25
